According to patent US11085056B2, “Transfection complexes and methods of using the same” (MOLECULAR TRANSFER, INC., priority 2015, dated 2021):

Experiments:
[1] = system: Human Fibroblast Cells; experiment: Transfection of human fibroblast cells with DOTMA/DOPE/peptide and eGFP plasmid, fluorescent plate reader; type: cell-based; settings: DOTMA/DOPE 1:1 plus peptide with RRRRRRRRRRRR (SEQ ID NO: 109) at n terminus; EF1Alpha eGFP plasmid; 0.01 mL complex; 42 hours
In short: (§1)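 Cells at 60-70% confluence got DOTMA/DOPE (1:1) mixed with peptides bearing an N-terminal R12 DNA-binding tag, complexed 10 min with EF1α-eGFP plasmid (5 μg/mL in OptiMEM); 0.01 or 0.02 mL complex per well. After 42 h at 37 °C, GFP read by fluorescence plate reader and % transfected cells by microscopy, relative to lipid without peptide.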

[2] = system: Jurkat Cells; experiment: Transfection of Jurkat cells with DOTMA/DOPE/peptide and eGFP plasmid, fluorescent plate reader; type: cell-based; settings: DOTMA/DOPE 1:1 plus peptide with RRRRRRRRRRRR (SEQ ID NO: 109) at n terminus; EF1Alpha eGFP plasmid; 0.02 mL complex; 42 hours
In short: as §1

[3] = system: HeLa Cells; experiment: Transfection of HeLa cells with DOTMA/DOPE/peptide and eGFP plasmid, fluorescent plate reader; type: cell-based; settings: DOTMA/DOPE 1:1 plus peptide with RRRRRRRRRRRR (SEQ ID NO: 109) at n terminus; EF1Alpha eGFP plasmid; 0.01 mL complex; 42 hours
In short: as §1

[4] = system: HeLa Cells; experiment: Transfection of HeLa cells with DOTMA/SEQ ID NO: 72/peptide compared with Lipofectamine 2000; type: cell-based; settings: fusogenic peptide 0.1 mg/mL
Experimental: Cells were plated to so that on the day of transfection the cells were 60-70% confluent in 96 well tissue culture plates. A DOMTA/DOPE Lipid solution (1:1 molar ratio) at 2 mg/mL in water were mixed with an equal volume of surface ligand peptides that had the nucleic acid binding moiety RRRRRRRRRRRR (SEQ ID NO: 109) covalently linked to the n terminus of each peptide during peptide synthesis. Peptides were at 2 mg/mL in water. The DOTMA/DOPE and the surface ligand peptide solution the transfection reagent was diluted 1 to 1 (v/v) in water. DOMTA/DOPE/PEPTIDE solutions were added to 0.1 mL of a plasmid DNA solution (EF1Alpha eGFP plasmid) at 5 μg/mL in OptiMEM. Lipofectamine 2000 was obtained from Life Technologies.
All solutions were at room temperature. A volume of 0.2 mL of a 5 μg/mL solution of DNA was aliquoted into each well of a non-tissue cultured treated plate. 4.0 μL of transfection reagents were added to DNA solutions respectively. The transfection reagent and DNA solution was mixed by pipetting up and down twice. Transfection complexes were formed for 10 minutes. After 10 minutes, 0.01 or 0.02 mL of the transfection complex was added to cells. HuVEC, HeLa, human adult keratinocytes, human primary adult fibroblast, and rat cortical neurons all respectively received 0.01 mL of the tramsfectopm complex. Human skeletal muscle cells, mouse C2C12 cells, Jurkat, and THP-1 cells received 0.02 mL of the transfection complex. Cells were incubated for 42 hours at 37° C. at 5% CO2. Plates were read on a fluorescent plate reader. Cells were also examined visually under a microscope to assess the extent of transfection (in terms of the percent of cells transfected) with a fluorescent microscope. Other modes of analysis, for example quantification with B-galactosidase or luciferase reports plasmids can also be used. […] Surface ligand that caused increase expression of GFP over the lipid DOTMA with no surface ligand were considered to enhance transfection or had higher % cells transfected were considered to enhance transfection. Peptides that gave greater than 2 fold enhancement are noted in bold and could be further optimized by adding different transfection enhancers or could be used with different cationic lipids or polymers.
The fusogenic peptide was added to the DOMTA/peptide formulation to achieve a final concentration of 0.1 mg/mL to see if transfection reagents were further enhanced by the addition of a fusogenic peptide and could provide higher transfection efficiency into HeLa cells and expression than the commercially available Lipofectamine 2000.

[5] = system: C2C12 Cells; experiment: Transfection of C2C12 cells with DOTMA/DOPE/peptide and eGFP plasmid, fluorescent plate reader; type: cell-based, mouse; settings: DOTMA/DOPE 1:1 plus peptide with RRRRRRRRRRRR (SEQ ID NO: 109) at n terminus; EF1Alpha eGFP plasmid; 0.02 mL complex; 42 hours
In short: as §1

[6] = system: NL-1 iPS Cells; experiment: Transfection of NL-1 iPS cells with DOTMA/DOPE/peptide and eGFP plasmid, fluorescent plate reader; type: cell-based; settings: DOTMA/DOPE 1:1 plus peptide with RRRRRRRRRRRR (SEQ ID NO: 109) at n terminus; EF1Alpha eGFP plasmid; 42 hours
[7] = system: HuVec Cells; experiment: Transfection of HuVec cells with DOTMA/DOPE/peptide and eGFP plasmid, fluorescent plate reader; type: cell-based; settings: DOTMA/DOPE 1:1 plus peptide with RRRRRRRRRRRR (SEQ ID NO: 109) at n terminus; EF1Alpha eGFP plasmid; 0.01 mL complex; 42 hours
In short: as §1

[8] = system: some examined cell types; experiment: Transfection expression and % cells transfected over the no peptide control; type: cell-based; settings: on some examined cell types
In short: as §1

[9] = 0.1 μL of DOTMA/SEQ ID NO: 72/Peptide in well of a 96 well plate
[10] = 0.2 μL of DOTMA/SEQ ID NO: 72/Peptide in well of a 96 well plate
[11] = 0.3 μL of DOTMA/SEQ ID NO: 72/Peptide in well of a 96 well plate
[12] = 0.4 μL of DOTMA/SEQ ID NO: 72/Peptide in well of a 96 well plate

| Substance | RF (Relative Fluorescence) of Transfection of Human Fibroblast Cells [1] | RF (Relative Fluorescence) of Transfection of Jurkat Cells [2] | RF (Relative Fluorescence) of Transfection of HeLa Cells [3] | RF (Relative Fluorescence), DOTMA/SEQ ID NO: 72/Peptide, HeLa Cells [4, 9] | RF (Relative Fluorescence), DOTMA/SEQ ID NO: 72/Peptide, HeLa Cells [4, 10] | RF (Relative Fluorescence), DOTMA/SEQ ID NO: 72/Peptide, HeLa Cells [4, 11] | RF (Relative Fluorescence), DOTMA/SEQ ID NO: 72/Peptide, HeLa Cells [4, 12] | RF (Relative Fluorescence) of Transfection of C2C12 Cells [5] | RF (Relative Fluorescence) of Transfection of NL-1 iPS Cells [6] | RF (Relative Fluorescence) of Transfection of HuVec Cells [7] | transfection expression and the % cells transfected over the no peptide control [8] |
| --- | --- | --- | --- | --- | --- | --- | --- | --- | --- | --- | --- |
| 375 (LAGSCLPVFSTL; Peptidic transfection agent) [compound 375] | 7305 | 4272 | 41076 | 22457 | 30891 | 34887 | 29024 | 5633 | 5196 | 5542 | increased |
| 344 (KGHRGF; Peptidic transfection agent) [compound 344] | 12704 | 10160 | 14415 | 13315 | 16387 | 12564 | 12511 | 1678 | 10895 | 11867 | increased |
| 328 (NWRHISYITRFG; Peptidic transfection agent) [compound 328] | 5641 | 4770 | 32528 | 11037 | 12229 | 10801 | 10951 | 5507 | 8611 | 3614 | increased |
| 343 (LFSHAVSSNG; Peptidic transfection agent) [compound 343] | 4590 | 23499 | 5910 | 6961 | 8626 | 8577 | 8160 | 3218 | 21726 | 16239 | increased |
| 358 (GHRGPTGRPGKRGKQGQKGDS; Peptidic transfection agent) [compound 358] | 5665 | 18820 | 15132 | 12331 | 12683 | 13686 | 11097 | 2271 | 21956 | 25398 | increased |
| 342 (TAGSCLRKFSTM; Peptidic transfection agent) [compound 342] | 9525 | 12825 | 33666 | 41299 | 36040 | 28841 | 18351 | 9496 | 11493 | 12804 | increased |
| 350 (SIGFRGDGQTC; Peptidic transfection agent) [compound 350] | 7105 | 9184 | 13313 | 24092 | 23238 | 19802 | 22255 | 2631 | 19132 | 13163 | increased |
| 454 (TGLSCLQRFTTM; Peptidic transfection agent) [compound 454] | 7568 | 8224 | 34550 | 34033 | 37099 | 27412 | 16023 | 9280 | 18100 | 13336 | increased |
